The record followed here is patent US20230032473A1, “NAD(H) NANOPARTICLES AND METHODS OF USE” (Wisconsin Alumni Research Foundation, priority 2021, published 2023).

One assay concerns LPS-stimulated BMDM. Put plainly: Pro-inflammatory cytokine levels by ELISA in LPS-stimulated BMDM. It is filed as cell-based, murine. The following applies: LPS 100 ng/mL, 10 μM NAD(H) equivalent, 12 h. From the text:
Measurement of inflammation related cytokine levels. […] Twelve hours after the treatment, the cell culture media were collected to analyze the cytokine production by ELISA kits supplied by R&D Systems according to the manufacturer's instructions. Data were collected by monitoring the difference between the absorbance at 450 nm and 570 nm using the Microplate Reader.
(In general: An ELISA detects its analyte on a solid surface through an enzyme-linked reagent.)

Assay [1] concerns CLP-induced sepsis with P. aeruginosa secondary infection. Nature of the assay: Cecal ligation and puncture (CLP) and P. aeruginosa secondary infection model. The class given is in vivo, mice. From the text: Cecal ligation and puncture (CLP) and P. aeruginosa secondary infection model. Mice were anesthetized with isoflurane. Thereafter, the abdominal cavity was opened with a midline incision to expose the cecum. The distal 50% of the cecum was ligated with a 6-0 silk suture and perforated with a 19-gauge needle twice. Subsequently, a small amount of feces was squeezed out and spread around the cecum. The cecum was relocated into the peritoneal cavity, and the laparotomy site was closed, followed by subcutaneous injection of 1 mL resuscitative prewarmed sterile saline (Dawulieti, J. et al. Treatment of severe sepsis with nanoparticulate cell-free DNA scavengers. Science advances 6, eaay7148 (2020)). This level of injury was utilized to create a prolonged infection that impaired immune system and induced approximate 30% mortality. Two injections of free NAD^+ (20 mg/kg per injection), LP-CaP, or NAD^+-LP-CaP (an equivalent dose of NAD^+20 mg/kg per injection) were given through tail vein 6 h and 24 h after the surgery. […] Mice survival and body weight were recorded over time and presented using Kaplan—Meier curves (n=14). […] The CLP mice were monitored twice daily and their conditions were evaluated using a sepsis scoring sheet. […]

With `NC(=O)C1=CN([C@@H]2O[C@H](COP(=O)([O-])OP(=O)([O-])OC[C@H]3O[C@@H](n4cnc5c(N)ncnc54)[C@H](O)[C@@H]3O)[C@@H](O)[C@H]2O)C=CC1.[Na+].[Na+]` [NADH, β-Nicotinamide adenine dinucleotide, reduced disodium salt], in the assay on LPS-stimulated BMDM, the “production of IL-6” value is “did not affect” and the “production of TNF-α” value is on record as “did not affect”.

In the case of `NC(=O)C1=CN([C@@H]2O[C@H](COP(=O)(O)OP(=O)(O)OC[C@H]3O[C@@H](n4cnc5c(N)ncnc54)[C@H](O)[C@@H]3O)[C@@H](O)[C@H]2O)C=CC1` [free NAD^+, β-Nicotinamide adenine dinucleotide], in the assay on LPS-stimulated BMDM, the “production of IL-6” value is on record as “did not affect” and the “production of TNF-α” value is listed as “did not affect”. Besides, the survival rate entry in assay [1] is recorded as “did not improve the survival rate”.
